Tests used:
Arabidopsis thaliana [1] = assay: Biochemical (metabolite) profiling by LC-MS and GC-MS of sprayed Arabidopsis (MOA1); conditions: within one hour after spraying
Arabidopsis thaliana [2] = assay: Phenotypic profiling of Arabidopsis sprayed with unknown and commercial herbicides (MOA1); assay type: in vivo; conditions: Ward's method

CCSC(=O)N(CC(C)C)CC(C)C [Butylate]
stress related (commonly regulated) metabolites (Arabidopsis thaliana [1]): neither butylate nor chlorpropham treatment resulted in many changes
phenotype / hierarchical clustering of the eleven phenotypic characteristics (Arabidopsis thaliana [2]): neither showed a strong herbicidal phenotype

From patent publication US20040023295A1, “Methods and systems for analyzing complex biological systems” (priority 2001, published 2004)
